From paper PMC4619123 (Virology, 2015)

Molecular target: JAK1 (Homo sapiens, UniProt P23458)
Assay: ADP-Glo luminescent kinase assay, recombinant JAK1, Poly E4Y1 substrate, […] ATP
Type: biochemical

Chain of JAK1 (P23458 whole entry): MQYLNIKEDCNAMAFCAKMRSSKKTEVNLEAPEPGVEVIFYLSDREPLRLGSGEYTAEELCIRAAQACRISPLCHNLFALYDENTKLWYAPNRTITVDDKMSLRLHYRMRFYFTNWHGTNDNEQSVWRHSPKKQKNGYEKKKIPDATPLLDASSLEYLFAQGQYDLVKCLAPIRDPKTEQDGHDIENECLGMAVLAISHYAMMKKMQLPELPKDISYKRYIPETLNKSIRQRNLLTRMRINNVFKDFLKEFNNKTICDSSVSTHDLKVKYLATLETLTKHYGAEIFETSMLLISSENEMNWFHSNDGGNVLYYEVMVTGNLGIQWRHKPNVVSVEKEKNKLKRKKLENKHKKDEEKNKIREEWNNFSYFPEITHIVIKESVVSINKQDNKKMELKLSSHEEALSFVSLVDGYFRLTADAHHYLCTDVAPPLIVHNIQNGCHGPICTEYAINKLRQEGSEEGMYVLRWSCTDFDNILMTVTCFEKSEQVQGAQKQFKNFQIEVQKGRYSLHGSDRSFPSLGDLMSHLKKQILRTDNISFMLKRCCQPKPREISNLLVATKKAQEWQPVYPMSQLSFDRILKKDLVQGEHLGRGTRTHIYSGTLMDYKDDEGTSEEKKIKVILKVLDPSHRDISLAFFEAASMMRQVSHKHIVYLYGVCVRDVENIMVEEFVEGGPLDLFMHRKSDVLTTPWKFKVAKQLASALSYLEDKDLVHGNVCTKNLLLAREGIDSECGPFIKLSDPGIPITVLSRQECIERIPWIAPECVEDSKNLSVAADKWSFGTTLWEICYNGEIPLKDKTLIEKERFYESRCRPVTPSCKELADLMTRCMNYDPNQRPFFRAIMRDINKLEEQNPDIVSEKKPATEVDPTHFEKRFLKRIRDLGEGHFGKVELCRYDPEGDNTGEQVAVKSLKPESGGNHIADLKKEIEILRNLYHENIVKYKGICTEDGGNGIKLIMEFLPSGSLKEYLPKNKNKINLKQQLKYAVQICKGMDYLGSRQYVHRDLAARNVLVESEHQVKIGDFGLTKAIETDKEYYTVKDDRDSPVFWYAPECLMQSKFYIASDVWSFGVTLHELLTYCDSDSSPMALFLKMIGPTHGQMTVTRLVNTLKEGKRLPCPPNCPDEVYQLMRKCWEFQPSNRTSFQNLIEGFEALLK

NC(=O)Nc1sc(-c2ccc(F)cc2)cc1C(N)=O [TPCA-1, 2-[(aminocarbonyl)amino]-5-(4-fluorophenyl)-3-thiophenecarboxamide]
IC50: 43.8 nM
